In PubChem BioAssay (NCI):
“And” between values parts separate entries of the source, which are not always exact repeats. Equal values may be shown once.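 Grown in 96-well plates, cells were treated for 48 hours with each compound at five concentrations. Insufficient inhibition: endpoint recorded as highest concentration tested. At the GI50, growth is halved. TGI: total growth inhibition.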

Legend:
Assay in all cases: NCI anticancer screen, dose series, 48 h
SN12C renal = test system: SN12C renal
EKVX NSCLC = test system: EKVX NSCLC
A498 renal = test system: A498 renal
NCI-H522 lung = test system: NCI-H522 lung
OVCAR-4 ovarian = test system: OVCAR-4 ovarian
UACC-257 melanoma = test system: UACC-257 melanoma
U251 CNS = test system: U251 CNS
786-0 renal = test system: 786-0 renal
K-562 leukemia = test system: K-562 leukemia
UACC-62 melanoma = test system: UACC-62 melanoma

SMILES	GI50 (SN12C renal) [µM]	TGI (SN12C renal) [µM]	GI50 (EKVX NSCLC) [µM]	TGI (EKVX NSCLC) [µM]	GI50 (A498 renal) [µM]	TGI (A498 renal) [µM]	GI50 (NCI-H522 lung) [µM]	TGI (NCI-H522 lung)	GI50 (OVCAR-4 ovarian) [µM]	TGI (OVCAR-4 ovarian) [µM]	GI50 (UACC-257 melanoma) [µM]	TGI (UACC-257 melanoma) [µM]	GI50 (U251 CNS) [µM]	TGI (U251 CNS) [µM]	GI50 (786-0 renal) [µM]	TGI (786-0 renal) [µM]	GI50 (K-562 leukemia) [µM]	TGI (K-562 leukemia) [µM]	GI50 (UACC-62 melanoma) [µM]	TGI (UACC-62 melanoma)
O=C(Nc1ccccc1C(=O)N/N=C(\c1ccccc1)c1ccccn1)c1ccc(F)cc1	0.584	> 100	0.169	> 100	1.37	9.43	0.393	> 28.6 µM	0.207	> 100	0.793	> 100	0.297	> 100	0.281	8.44	0.519	> 100	0.308	2.03 µM
COC(=O)/C(=N\NC(N)=S)C(C#N)c1ccccc1 (configuration not stated)		> 100		> 100		> 100		> 100 µM		> 100		> 100		> 100		> 100		> 100		> 100 µM
Cc1cc([N+](=O)[O-])c(C)c(Br)c1C		> 100		> 100		> 100		> 100 µM		> 100		> 100		> 100		> 100		> 100		> 100 µM
Cc1ccc(C(C)C)cc1NC(=O)Nc1ccc([N+](=O)[O-])cc1	2.28	8.97	2.37	8.01	1.19	4.45	1.38	3.97 µM	3.44	13	2.41	7.71	2.25	6.46	2.32	5.29	2.96	7.74	1.81	10.2 µM
CC1CCC2N(C1)CC1C3(O)CC45OC6(O)C(O)CCC4(C)C6CCC5C3(O)CC(O)C1(O)C2(C)O (configuration not stated)		> 100		> 100		> 100		> 100 µM		> 100		> 100		> 100		> 100		> 100		> 100 µM
COc1ccc(S(=O)(=O)N(C)CC(=O)O)cc1		> 100		> 100		> 100		> 100 µM		> 100		> 100		> 100		> 100		> 100		> 100 µM
C/C(CC(=O)N(C(C)C)C(C)C)=N\NC(=O)c1ccncc1		> 100		> 100		> 100		> 100 µM		> 100		> 100		> 100		> 100		> 100		> 100 µM
N#CC1C=Cc2ccccc2N1C(=O)Oc1ccccc1 (configuration not stated)		> 100		> 100		96.5		> 100 µM		> 100		> 100		> 100		> 100		> 100		> 100 µM
C=[CH][Sn]([CH]=C)([O]c1cccc2cccnc12)[O]c1cccc2cccnc12	4.45	17.5	5.58	17.2	5.88	14.2	0.93	3.36 µM	1.38	4.37	2.36	7.66	2.58	6.67	3.31	9.29	2.73	> 24.9	0.964	2.5 µM
COc1ccc(OC)c2c3c(ccc12)C(c1ccccc1)OC3=O (configuration not stated)		> 100		> 100		> 100		> 100 µM		> 100		> 100		> 100		> 100		> 100		> 100 µM
COc1cc([N+](=O)[O-])c2ncccc2c1[N+](=O)[O-]	12.5	25.3	15.4	29.4	12.3	32	1.13	2.62 µM	1.82	3.37	13.5	31.2	4.45	16.6	10.7	23.3	3.97	> 100	12	25.1 µM
Nc1ccc2c(c1)c(N)nn2C(=O)Nc1ccc(Cc2ccccc2)cc1	13.4	30.9	14	36.7	14.4	28.4	14.7	39.6 µM	8.29	24.1	14.5	29.7	6.53	20.9	12.4	25.9	2.24	11.4	2.9	12.6 µM
N=C1C=C(N)C(=O)c2[nH]c(=O)ccc21		3.16		3.55		6.52		3.54 µM		2.74		16.6		3.6		3.48		4.4		4.61 µM
CC1COCC(C)N1C1=C(Cl)C(=O)c2ccccc2C1=O (configuration not stated)	11.3	23.5	1.42	2.87	14.4	27.6	1.59	3.02 µM	1.61	3.03	1.6	3.08	11.6	25.7	3.67	13.5	2.81	12	5.85	18.8 µM
CC1CC2(C)CC(=O)C1C1C(=O)N(CCN3CCCCC3)C(=O)C12 (configuration not stated)	> 100	> 100	> 100	> 100	> 100	> 100	> 100	> 100 µM	> 100	> 100	> 100	> 100	> 100	> 100	> 100	> 100	> 100	> 100	> 100	> 100 µM
CC(C)C(=O)Oc1cc2c(=O)oc3c(OC(=O)C(C)C)c(OC(=O)C(C)C)cc4c(=O)oc(c1OC(=O)C(C)C)c2c34		> 100		> 100		> 100		> 100 µM		> 100		> 100		> 100		> 100		> 100		> 100 µM
CC(=O)Oc1ccc2c(c1)CC[C@@H]1C2CC[C@]2(C)C(=O)NC(=O)CC12 (some centres not stated)		> 100		> 100		> 100		> 100 µM		> 100		> 100		> 100		> 100		> 100		> 100 µM
C/C=C1\C(=O)OC2CCN3CCC(COC(=O)C(C)(O)C(C)C1O)C23 (configuration not stated)		> 100		> 100		> 100		> 100 µM		> 100		> 100		> 100		> 100		> 100		> 100 µM

SMILES	GI50 (SN12C renal) [µM]	TGI (SN12C renal) [µM]	GI50 (EKVX NSCLC) [µM]	TGI (EKVX NSCLC) [µM]	GI50 (A498 renal) [µM]	TGI (A498 renal) [µM]	GI50 (NCI-H522 lung) [µM]	TGI (NCI-H522 lung)	GI50 (OVCAR-4 ovarian) [µM]	TGI (OVCAR-4 ovarian) [µM]	GI50 (UACC-257 melanoma) [µM]	TGI (UACC-257 melanoma) [µM]	GI50 (U251 CNS) [µM]	TGI (U251 CNS) [µM]	GI50 (786-0 renal) [µM]	TGI (786-0 renal) [µM]	GI50 (K-562 leukemia) [µM]	TGI (K-562 leukemia) [µM]	GI50 (UACC-62 melanoma) [µM]	TGI (UACC-62 melanoma)
S=c1nc(-c2ccnc(-c3nc(=S)[nH][nH]3)c2)[nH][nH]1		> 100		> 100		> 100		> 100 µM		> 100		> 100		> 100		> 100		> 100		> 100 µM
CC1OC(OC2CCC3(C=O)C4CCC5(C)C(C6=CC(=O)OC6)CCC5(O)C4CCC3(O)C2)C(O)C(O)C1O (configuration not stated)		3.74e-05		3.38e-05		0.000154		4.41e-05 µM		3.33e-05		0.000259		0.000156		3.2e-05		0.000263		0.000127 µM
Nc1ccc(S(=O)(=O)Nc2cnc3c(Cl)cccc3n2)cc1	> 81.5	> 750		712		597	15.2	75 µM and 259 µM	> 78.1	> 672	> 89.3	> 750	68	> 750		> 750	36.4	> 750	56.3	> 93.3 µM and 122 µM
O=C(c1ccc(Cl)cc1)C1OC12C(=O)Nc1ccccc12 (configuration not stated)		19.3		33.4		36		3.97 µM		34.1		27.8		32		26.9		11.2		32.3 µM
COc1ccc(CCc2cc(OC)c(OC)c(OC)c2)cc1		> 91.2		70		8.62		0.115 µM		> 92.5		47.7		2.73		69.1		13.7		> 100 µM
CC(=O)C1C(=O)N(C(C)C)C[C@@H]2CCC(=O)C[C@H]12 (some centres not stated)		> 100		> 100		> 100		> 100 µM		> 100		> 100		> 100		> 100		> 100		> 100 µM
CCOc1ccc(C(CN2CCOCC2)C(C)=O)cc1OC (configuration not stated)		31.2		50.3		59		2.46 µM		33.3		45.8		31.9		15.7		13.9		32.8 µM
CC/C=C\C/C=C\C[C@H](O)C/C=C1/C(=O)C=C[C@@H]1C/C=C\CCCC(=O)OC	1.9	5.01	3.15	10.9	2.48	4.67	1.03	2.36 µM	4.06	20.2	1.83	4.32	1.45	2.83	1.82	3.52	0.546	12.5	0.714	2.85 µM
CC1=NN(C(=O)c2ccccc2O)C(=O)/C1=C/c1cccc([N+](=O)[O-])c1		98.7		> 100		0.801		54.6 µM		> 100		> 100		> 100		> 100		> 100		27.1 µM
CCOP(=O)(Nc1ccc2oc(=O)c3ccccc3c2c1)OCC		> 100		> 100		> 100		> 100 µM		> 100		> 100		> 100		> 100		> 100		> 100 µM
CCCCCCCCCCCCCCCCOC(=O)c1cc(O)cc(C(=O)OCCCCCCCCCCCCCCCC)c1		> 100		> 100		> 100		> 100 µM		> 100		> 100		> 100		> 100		> 100		> 100 µM
COC(=O)/C(=N/NC(N)=O)C(C(=O)OC)C(=O)C(=O)Nc1ccc(Cl)cc1 (configuration not stated)		> 100		> 100		> 100		> 100 µM		> 100		> 100		> 100		> 100		> 62.6		> 100 µM
COc1ccc(CCN=C2CCC(C(=O)NCCc3ccc(OC)c(OC)c3)N2)cc1OC (configuration not stated)		> 100		> 100		> 100		> 100 µM		> 100		> 100		> 100		> 100		> 100		> 100 µM
COc1ccccc1NC(=O)C(CC(C(=O)Nc1ccccc1OC)/C(C)=N/Nc1ccc([N+](=O)[O-])cc1[N+](=O)[O-])/C(C)=N/Nc1ccc([N+](=O)[O-])cc1[N+](=O)[O-] (configuration not stated)		> 100		> 100		> 100		> 100 µM		> 100		> 100		> 100		> 100		> 100		> 100 µM
CCOC(=O)C(NC(=O)c1[nH]cnc1/N=N/N(C)C)C(C)C (configuration not stated)		> 100		> 100		> 100		> 100 µM		> 100		> 100		> 100		> 100		> 100		> 100 µM
C[C@]12CC[C@H](OC3CCCCO3)CC1=CC[C@@H]1C2CC[C@]2(C)/C(=N/O)CCC12 (some centres not stated)		31.5		82.9		> 100		31.1 µM		39		79.8		40.4		55.8		> 100		> 100 µM
COc1cc(/C=C(\C#N)C(N)=C(C#N)C#N)cc(O)c1O		> 100		> 100		> 100		> 100 µM		> 100		> 100		> 100		> 100		> 100		> 100 µM
